Reference: patent US8367681B2, “Pyrazolopyrimidines and related heterocycles as kinase inhibitors” (Cylene Pharmaceuticals, Inc., priority 2009, dated 2013)

Legend:
recombinant human CK2 = target: T1, recombinant human CK2 (Homo sapiens, UniProt P68400); test: CK2 assay, cell-free, 33P-ATP filter plate; format: biochemical
T1 construct: purchased Upstate
Procedure: Modulatory activity of compounds described herein was assessed in vitro in cell-free CK2 assays by the following method.
Test compounds in aqueous solution were added at a volume of 10 microliters, to a reaction mixture comprising 10 microliters Assay Dilution Buffer (ADB; 20 mM MOPS, pH 7.2, 25 mM beta-glycerolphosphate, 5 mM EGTA, 1 mM sodium orthovanadate and 1 mM dithiothreitol), 10 microliters of substrate peptide (RRRDDDSDDD SEQ ID NO.: 4, dissolved in ADB at a concentration of 1 mM), 10 microliters of recombinant human CK2 (25 ng dissolved in ADB; Upstate). Reactions were initiated by the addition of 10 microliters of ATP Solution (90% 75 mM MgCl2, 75 micromolar ATP dissolved in ADB; 10% [γ-^33P]ATP (stock 1 mCi/100 μl; 3000 Ci/mmol (Perkin Elmer) and maintained for 10 minutes at 30 degrees C. The reactions were quenched with 100 microliters of 0.75% phosphoric acid, then transferred to and filtered through a phosphocellulose filter plate (Millipore). After washing each well 5 times with 0.75% phosphoric acid, the plate was dried under vacuum for 5 min and, following the addition of 15 ul of scintillation fluid to each well, the residual radioactivity was measured using a Wallac luminescence counter.

recombinant PIM-1 = recombinant PIM-1 (Homo sapiens, UniProt P11309); test: PIM-1 kinase assay, 33P-ATP filter plate; format: biochemical; conditions: recombinant PIM-1, 15 uM ATP; read-out: PIM1: IC50
Chain of recombinant PIM-1 (P11309 whole entry): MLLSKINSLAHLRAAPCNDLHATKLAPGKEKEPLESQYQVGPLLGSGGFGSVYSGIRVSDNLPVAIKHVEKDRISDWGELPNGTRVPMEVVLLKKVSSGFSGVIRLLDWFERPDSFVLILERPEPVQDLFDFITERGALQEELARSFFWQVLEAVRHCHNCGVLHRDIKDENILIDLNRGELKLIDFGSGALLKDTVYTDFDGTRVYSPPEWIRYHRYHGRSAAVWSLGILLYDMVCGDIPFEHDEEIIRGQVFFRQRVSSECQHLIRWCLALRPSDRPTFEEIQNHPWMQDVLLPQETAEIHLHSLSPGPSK
Procedure: The following procedure was used to assay the PIM-1 kinase activity of compounds of the invention. Other methods for assaying PIM-1 and other PIM kinases, as well as methods to assay for activity against the various kinases in FIG. 1, are known in the art.
In a final reaction volume of 50 ul, recombinant PIM-1 (1 ng) was incubated with 12 mM MOPS pH 7.0, 0.4 mM EDTA, glycerol 1%, brij 35 0.002%, 2- mercaptoethanol 0.02%, BSA 0.2 mg/ml, 100 uM KKRNRTLTK SEQ ID NO.: 5, 10 mM MgAcetate, 15 uM ATP, [γ-^33P-ATP] (specific activity approx. […]), DMSO 4% and test inhibitor compound at the required concentration. The reaction was initiated by the addition of the Magnesium ATP mixture. After 40 min incubation at 23° C., the reactions were quenched by the addition of 100 ul 0.75% Phosphoric acid, and the labeled peptide collected by filtration through a phosphocellulose filter plate. The plate was washed 4 times with 0.075% phosphoric acid (100 ul per well) and then, after the addition of scintillation fluid (20 ul per well), the counts were measured by a scintillation counter.

[1] = tested on: MV-4 human acute myeloid leukemia cells; test: Alamar Blue (AB) cell proliferation assay, MV-4-11; format: cell-based; conditions: MV4-11, 96 h, MV-4-11 cells, four days with compound
Procedure: (§1) A representative cell-proliferation assay protocol using Alamar Blue dye (stored at 4° C., use 20 ul per well) is described hereafter.
(§2) 96-well Plate Setup and Compound Treatment • a. Split and trypsinize cells. • b. Count cells using hemocytometer. • c. Plate 4,000-5,000 cells per well in 100 μl of medium and seed into a 96-well plate according to the following plate layout. Add cell culture medium only to wells B10 to B12. Wells B1 to B9 have cells but no compound added.
(§3) • d. Add 100 μl of 2× drug dilution to each well in a concentration shown in the plate layout above. At the same time, add 100 μl of media into the control wells (wells B10 to B12). Total volume is 200 μl/well. • e. Incubate four (4) days at 37° C., 5% CO2 in a humidified incubator. • f. Add 20 μl Alamar Blue reagent to each well. • g. Incubate for four (4) hours at 37° C., 5% CO2 in a humidified incubator. • h. Record fluorescence at an excitation wavelength of 544 nm and emission wavelength of 590 nm using a microplate reader.
(§4) In the assays, cells are cultured with a test compound for approximately four days, the dye is then added to the cells and fluorescence of […] dye is detected after approximately four hours. Different types of cells can be utilized in the assays (e.g., HCT-116 human colorectal carcinoma cells, PC-3 human prostatic cancer cells, MDA-MB231 human breast cancer cells, K-562 human chronic myelogenous leukemia (CML) cells, MiaPaca human pancreatic carcinoma cells, MV-4 human acute myeloid leukemia cells, and BxPC3 human pancreatic adenocarcinoma cells).

[2] = tested on: MDA-MB231 human breast cancer cells; test: Alamar Blue (AB) cell proliferation assay, MDAMB231; format: cell-based; conditions: MDA-MB-231, 96 h, four days with compound
Procedure: as §1, §2, §3, §4

[3] = tested on: MiaPaca human pancreatic carcinoma cells; test: Alamar Blue (AB) cell proliferation assay, MiaPaCa; format: cell-based; conditions: MIA PaCa-2, 96 h, four days with compound
Procedure: as §1, §2, §3, §4

[4] = tested on: PC-3 human prostatic cancer cells; test: Alamar Blue (AB) cell proliferation assay, PC3; format: cell-based; conditions: PC-3, 96 h, four days with compound
Procedure: as §1, §2, §3, §4

[5] = tested on: K-562 human chronic myelogenous leukemia (CML) cells; test: Alamar Blue (AB) cell proliferation assay, K-562; format: cell-based; conditions: K562, 96 h, K-562 cells, four days with compound
Procedure: as §1, §2, §3, §4

P21_BxPC3 = P21_BxPC3 cellular assay; format: cell-based; conditions: Homo sapiens, BXPC-3; BxPC3 cells
P21_MDAMB231 = P21_MDAMB231 cellular assay; format: cell-based; conditions: Homo sapiens, MDA-MB-231; MDAMB231 cells
recombinant human PIM2 = recombinant human PIM2 (Homo sapiens, UniProt Q9P1W9); test: PIM-2 kinase assay, 33P-ATP filter plate; format: biochemical; conditions: PIM2, 5 μM ATP; read-out: PIM2 IC50 (printed in the PIM1: IC50 (μM) column)
Chain of recombinant human PIM2 (Q9P1W9 whole entry): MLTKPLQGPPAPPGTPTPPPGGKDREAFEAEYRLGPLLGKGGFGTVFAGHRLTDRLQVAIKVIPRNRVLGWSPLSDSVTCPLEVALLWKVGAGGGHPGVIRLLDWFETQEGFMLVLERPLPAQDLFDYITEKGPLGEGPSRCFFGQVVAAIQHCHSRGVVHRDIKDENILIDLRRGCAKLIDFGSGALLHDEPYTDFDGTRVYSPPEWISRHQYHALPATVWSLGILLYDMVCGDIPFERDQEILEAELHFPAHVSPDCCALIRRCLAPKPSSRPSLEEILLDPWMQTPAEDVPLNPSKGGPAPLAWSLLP
Procedure: Test compounds dissolved and diluted in DMSO (2 μl) were added to a reaction mixture comprising 10 μl of 5× Reaction Buffer (40 mM MOPS pH 7.0, 5 mM EDTA), 10 μl of recombinant human PIM2 solution (4 ng PIM-2 dissolved in dilution buffer (20 mM MOPS pH 7.0; EDTA 1 mM; 5% Glycerol; 0.01% Brij 35; […]; […] 2-mercaptoethanol; 1 mg/ml BSA)) and 8 ul of water. Reactions were initiated by the addition of 10 ul of ATP Solution ([…] (15 mM MgCl2; 75 uM ATP) 1% ([γ-33P]ATP: Stock 1 mCi/100 μl; 3000 Ci/mmol (Perkin Elmer)) and 10 ul of substrate peptide solution (RSRSSYPAGT SEQ ID NO.: 6, dissolved in water at a concentration of 1 mM), Reactions were maintained for 10 min at 30° C. The reactions were quenched with 100 ul of 0.75% Phosphoric acid, then transferred to and filtered through a Phosphocellulose filter plate (Millipore, MSPH-N6B-50). After washing each well 4 times with 0.75% Phosphoric acid, scintillation fluid (20 uL) was added to each well and the residual radioactivity was measured using a Wallac luminescence counter.

T1 sequence (P68400 whole entry): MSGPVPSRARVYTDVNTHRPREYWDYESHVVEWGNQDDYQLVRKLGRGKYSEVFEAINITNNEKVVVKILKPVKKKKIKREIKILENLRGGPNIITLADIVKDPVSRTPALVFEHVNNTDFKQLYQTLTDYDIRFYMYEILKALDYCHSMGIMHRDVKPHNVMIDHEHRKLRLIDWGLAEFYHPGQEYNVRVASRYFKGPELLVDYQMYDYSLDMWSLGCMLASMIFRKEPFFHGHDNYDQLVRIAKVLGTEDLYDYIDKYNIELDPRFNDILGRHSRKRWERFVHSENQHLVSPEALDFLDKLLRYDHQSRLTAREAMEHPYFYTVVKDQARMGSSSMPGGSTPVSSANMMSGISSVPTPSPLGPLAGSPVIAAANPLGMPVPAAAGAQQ
T1 sequence (P67870 whole entry partner): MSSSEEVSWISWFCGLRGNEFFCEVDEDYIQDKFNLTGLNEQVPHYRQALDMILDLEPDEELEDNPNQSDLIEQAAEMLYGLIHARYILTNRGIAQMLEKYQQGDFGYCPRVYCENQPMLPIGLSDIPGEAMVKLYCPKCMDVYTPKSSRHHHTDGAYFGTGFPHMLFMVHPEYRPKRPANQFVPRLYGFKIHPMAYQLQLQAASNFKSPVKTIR

| IC50 (recombinant human CK2) [nM] | IC50 (recombinant PIM-1) [nM] | IC50 [4] [nM] | Structure (SMILES) | further results |
| --- | --- | --- | --- | --- |
| 13 | 21 | 3910 | COC(=O)c1cccc(-c2ccn3ncc(/C=C4/SC(=S)NC4=O)c3n2)c1 | IC50 [1]: 11 nM; IC50 [2]: 8660 nM; IC50 [3]: > 10000 nM; IC50 [5]: > 10000 nM |
| 80 | 91 | > 30000 | COC(=O)c1cccc(-c2ccn3ncc(/C=C4/SC(=O)NC4=O)c3n2)c1 | IC50 (P21_BxPC3): 5680 nM; IC50 [2]: > 10000 nM; IC50 (P21_MDAMB231): 3160 nM; IC50 [3]: > 10000 nM; IC50 [5]: 51 nM |
| 9 | 688 | > 30000 | O=C1NC(=O)/C(=C\c2cnn3ccc(-c4cccc(C(=O)O)c4)nc23)S1 | IC50 [1]: > 1000 nM; IC50 [2]: > 10000 nM; IC50 [3]: > 10000 nM; IC50 [5]: > 10000 nM |
| 6 | 18 | 842 | O=C1NC(=S)S/C1=C/c1cnn2ccc(Nc3cccc(Cl)c3)nc12 | IC50 (P21_BxPC3): 2660 nM; IC50 [1]: > 30 nM; IC50 [2]: > 10000 nM; IC50 (P21_MDAMB231): 300 nM; IC50 [3]: > 10000 nM; IC50 [5]: 153 nM |
| 9 | 427 | 143 | O=C1NC(=O)/C(=C\c2cnn3ccc(Nc4cccc(Cl)c4)nc23)N1 | IC50 (P21_BxPC3): 540 nM; IC50 [1]: > 30 nM; IC50 [2]: 768 nM; IC50 (P21_MDAMB231): 100 nM; IC50 [3]: 108 nM; IC50 [5]: 153 nM |
| 3 | 52 | 3040 | O=C1NC(=O)/C(=C\c2cnn3ccc(Nc4cccc(Cl)c4)nc23)S1 | IC50 (P21_BxPC3): 450 nM; IC50 [1]: 271 nM; IC50 [2]: 110 nM; IC50 (P21_MDAMB231): 680 nM; IC50 [3]: 285 nM; IC50 [5]: 132 nM |
| 22 | 4 |  | Cc1nccn1-c1cccc(Nc2ccn3ncc(/C=C4\SC(=O)NC4=O)c3n2)c1 | IC50 [1]: 5380 nM; IC50 [2]: > 10000 nM; IC50 [3]: > 10000 nM; IC50 [5]: > 10000 nM |
| 210 | 890 |  | CC(C)(C)c1cccc(Nc2ccn3ncc(/C=C4/NC(=O)NC4=O)c3n2)c1 |  |
| 79 | 107 |  | CC(C)(C)c1cccc(Nc2ccn3ncc(/C=C4/SC(=O)NC4=O)c3n2)c1 |  |
| > 5000 | 158 |  | Nc1ccn2ncc(/C=C3\NC(=O)NC3=O)c2n1 |  |
| 57 | 537 |  | CN1CCN(c2ccc(Nc3ccn4ncc(/C=C5/NC(=O)NC5=O)c4n3)cc2)CC1 |  |
| 120 | 61 |  | O=C1NC(=O)/C(=C\c2cnn3ccc(Nc4cccc(Cn5ccnc5)c4)nc23)N1 |  |
| 145 | 431 |  | O=C1NC(=O)/C(=C/c2cnn3ccc(N4CCCCC4)nc23)N1 |  |
| 375 | 239 |  | CN1C(=O)NC(=O)/C1=C/c1cnn2ccc(Nc3cccc(Cl)c3)nc12 |  |
| 460 | 373 |  | CCN(CC)Cc1cccc(Nc2ccn3ncc(/C=C4\NC(=O)NC4=O)c3n2)c1 |  |
| 1970 | 3530 |  | CN1CCCN(c2ccn3ncc(/C=C4\NC(=O)NC4=O)c3n2)CC1 |  |

| IC50 (recombinant human CK2) [nM] | IC50 (recombinant PIM-1) [nM] | IC50 [4] [nM] | Structure (SMILES) | further results |
| --- | --- | --- | --- | --- |
| 130 | 126 |  | CN1CCCN(c2ccn3ncc(/C=C4\SC(=O)NC4=O)c3n2)CC1 |  |
| 247 | 518 |  | CN1CCN(c2cccc(Nc3ccn4ncc(/C=C5\NC(=O)NC5=O)c4n3)c2)CC1 |  |
| 303 | 1250 |  | O=C1NC(=O)/C(=C/c2cnn3ccc(Nc4cccc(OCCN5CCOCC5)c4)nc23)N1 |  |
| 23 | 1040 | 9710 | CC(C)Oc1cccc(Nc2ccn3ncc(/C=C4\NC(=O)NC4=O)c3n2)c1 |  |
| 35 | 346 | 6550 | CC(C)CNc1ccn2ncc(/C=C3\NC(=O)NC3=O)c2n1 |  |
| 58 | 431 |  | CN(C)CCOc1ccc(Nc2ccn3ncc(/C=C4\NC(=O)NC4=O)c3n2)cc1 |  |
| 574 | 1570 |  | CC(C)Nc1ccn2ncc(/C=C3\NC(=O)NC3=O)c2n1 |  |
| 2150 | 2380 |  | O=C1NC(=O)/C(=C/c2cnn3ccc(NCCF)nc23)N1 |  |
| 15 | 25 | > 10000 | O=C1NC(=S)S/C1=C\c1cnn2ccc(-c3ccccc3F)nc12 |  |
| 41 | 240 | > 10000 | O=C1NC(=O)/C(=C/c2cnn3ccc(-c4ccccc4F)nc23)S1 |  |
| 179 | 3010 |  | O=C1NC(=O)/C(=C/c2cnn3ccc(-c4ccccc4F)nc23)N1 |  |
| 20 | 194 |  | O=C1NC(=O)/C(=C/c2cnn3ccc(Nc4ccc(Cl)cc4)nc23)N1 |  |
| 7 |  |  | O=C1NC(=O)/C(=C/c2cnn3ccc(Nc4ccc(Cl)cc4)nc23)S1 |  |
| < 100 |  |  | O=C1NC(=O)/C(=C/c2cnn3ccc(-c4ccc(C(=O)NCC5CC5)s4)nc23)N1 | IC50 (recombinant human PIM2): 0.58 µM |
| < 100 |  |  | CCOCCNC(=O)c1ccc(-c2ccn3ncc(/C=C4\NC(=O)NC4=O)c3n2)s1 | IC50 (recombinant human PIM2): 1.06 µM |
| < 100 |  |  | CC(O)CNC(=O)c1ccc(-c2ccn3ncc(/C=C4\NC(=O)NC4=O)c3n2)s1 (stereo not drawn) | IC50 (recombinant human PIM2): 0.54 µM |
